Results on 4 molecules are retold here after patent publication US20240158352A1, “NOVEL ADAMANTYL DERIVATIVE OR PHARMACEUTICALLY ACCEPTABLE SALT THEREOF, AND USE THEREOF” (CAN-Therapy Inc., priority 2021, published 2024).

A word on the IC50: it is the midpoint of a concentration-inhibition curve.

Test [1] relates to LLC, a mouse lung carcinoma cell line. Kind of test: WST cell viability assay, LLC. The note with it: 0.01 to 20 mM, 2 days; for IC50: 48 h, mouse lung carcinoma, WST, read-out: Cell growth inhibition IC50. Format: cell-based. As to the method: (§1) After treating LLC, a mouse lung carcinoma cell line, and A549, a human lung cancer cell line, with KUgt-102 derivatives, cell viability was measured by water soluble tetrazolium (WST) cell viability assay.
(§2) The lung cancer cell lines LLC and A549 were attached to a 96-well plate at 5×10e^3 and 1×10e^4 cells/wells, respectively. The next day, the culture medium was removed, and they were added with new medium treated with the KUgt-102 derivative and evogliptin and saxagliptin, respectively, which have a structure similar to that of the derivative of the present disclosure known as a DPP4 inhibitor, as a positive control, in a concentration-dependent manner from 0.01 to 20 mM. Cells treated with the derivative and control group were cultured at 37° C. in 5% CO2. After 2 days, the cultured cells were treated with WST reagent (EZ-CYTOX, Dogen, Republic of Korea) at a final volume of 1:10 to analyze cell viability. Thereafter, the cultured plate was stored in an incubator at 37° C.
(§3) After culturing for 1 hour, the color change was measured at 450 nm using a microplate reader (SpectraMAX190, molecular Devices, CA, USA), and the measurement results are shown in FIGS. 2 and 3.

Test [2] has as its system A549, a human lung cancer cell line. Kind of test: WST cell viability assay, A549. Format: cell-based. The conditions noted are these: for IC50: 48 h, A549, human lung cancer, WST, read-out: Cell growth inhibition IC50. As to the method: as §1, §2, §3
In a further test the target is T1, DPP4 (human recombinant) (Homo sapiens, UniProt P27487).
T1 construct: purchased Abcam (Boston, USA) 133081
Kind of test: DPP4 screening assay (Abcam 133081 kit, Gly-Pro-AMC fluorescent substrate). The class given is biochemical. The conditions noted are these: FIG. 1; for DPP4 inhibitory activity: treated at 1 μM, 100 nM, 10 nM, 1 nM and 100 pM, 37° C., 30 minutes. As to the method:
DPP4 screening assay was performed to identify the DPP4 inhibitory activity of the adamantyl derivatives KUgt-102 and KUgt-103 of the present disclosure. Abcam (Boston, USA) 133081 was used as an assay kit, and Gly-Pro-Aminomethylcoumarin was used as a fluorescent substrate. That is, the fluorescence emitted from aminomethylcoumarin (AMC), which was freed by cleaving the peptide bond by DPP, was analyzed at an excitation wavelength of 350 to 360 nm and an emission wavelength of 450 to 465 nm to measure the DPP4 inhibitory activity.
More specifically, DPP Assay Buffer (10×) was dissolved in HPLC-grade pure water, thereby preparing 1× solution. 120 μl of DPP4 (human recombinant) contained in each glass vial was mixed with 480 μl of 1× assay buffer. 120 μl of Gly-Pro-AMC, in which 5 mM H-Gly-Pro was conjugated to AMC, was dissolved in 2.88 ml assay buffer to produce DPP substrate. As a positive control, vildagliptin and saxagliptin, which have a similar structure to the derivative of the present disclosure, known as DPP4 inhibitor, were dissolved in 500 μl of assay buffer to make 1 mM, and the result was used in the reaction. As an experimental group, 10 μl each of adamantyl derivatives KUgt-102 and KUgt-103 was used in the reaction. […] The reaction was repeated three times.
After the reaction, fluorescence was measured at an excitation wavelength of 350-360 nm and an emission wavelength of 450-465 nm using a fluorescence microplate reader (SPECTRA MAX Gemini EM, USA). Thereafter, the inhibitory activity was calculated as follows.

T1 sequence (P27487 whole entry): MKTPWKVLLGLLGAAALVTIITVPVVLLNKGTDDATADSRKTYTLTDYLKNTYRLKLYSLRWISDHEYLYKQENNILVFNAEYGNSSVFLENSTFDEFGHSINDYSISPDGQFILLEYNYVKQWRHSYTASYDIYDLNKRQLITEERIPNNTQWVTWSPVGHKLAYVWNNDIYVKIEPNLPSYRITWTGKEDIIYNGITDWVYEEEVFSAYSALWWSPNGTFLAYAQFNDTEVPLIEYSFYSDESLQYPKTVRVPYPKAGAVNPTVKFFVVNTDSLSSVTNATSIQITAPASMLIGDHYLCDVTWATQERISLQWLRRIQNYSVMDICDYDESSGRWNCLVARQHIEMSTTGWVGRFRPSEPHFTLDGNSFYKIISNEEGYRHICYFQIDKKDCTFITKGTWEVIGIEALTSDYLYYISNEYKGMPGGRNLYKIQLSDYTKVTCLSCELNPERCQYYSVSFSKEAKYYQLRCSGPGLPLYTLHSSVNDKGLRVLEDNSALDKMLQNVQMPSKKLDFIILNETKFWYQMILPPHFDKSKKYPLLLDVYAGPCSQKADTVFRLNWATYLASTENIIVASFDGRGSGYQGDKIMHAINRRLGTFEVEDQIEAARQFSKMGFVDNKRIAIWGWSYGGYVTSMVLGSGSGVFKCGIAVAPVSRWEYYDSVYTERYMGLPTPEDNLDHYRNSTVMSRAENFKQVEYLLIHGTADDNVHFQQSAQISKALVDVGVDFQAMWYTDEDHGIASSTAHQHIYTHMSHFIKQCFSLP

As for `CC(C)(C)OC[C@@H]1C(=O)NCCN1C(=O)C[C@H](N)Cc1cc(F)c(F)cc1F` [Evogliptin, evogliptin, reference compound], the IC50 in test [1] was determined as 660 ± 10 µM; in test [2] (0.01 to 20 mM, 2 days), 750 ± 10 µM.

As for `N[C@H](C(=O)N(CCO)CCO)C12CC3CC(CC(O)(C3)C1)C2` [KUgt-103, (S)-2-amino-2-((1r,3R,5R,7S)-3-hydroxyadamantan-1-yl)-N,N-bis(2-hydroxyethyl)acetamide], at DPP4 (human recombinant), the DPP4 inhibitory activity result is given as “excellent DPP4 inhibitory activity”.

For `N#C[C@@H]1CCCCN1C(=O)[C@@H](N)C12CC3CC(CC(O)(C3)C1)C2` [KUgt-102, (S)-1-((S)-2-amino-2-((1r,3R,5R,7S)-3-hydroxyadamantan-1-yl)acetyl)piperidine-2-carbonitrile], the cell viability result in test [1] (FIG. 2) is given as “inhibited cell viability in a concentration-dependent manner”; in test [2] (A549, 0.01 to 20 mM, 2 days, FIG. 3), “inhibited cell viability in a concentration-dependent manner”. The IC50 in test [1] came to 330 ± 10 µM; in test [2] (0.01 to 20 mM, 2 days), 240 ± 10 µM. In addition, the “anticancer activity relative to evogliptin and saxagliptin, based on the same amount” value in test [2] (human lung cancer cell lines) is recorded as “about three times better anticancer activity”. Further, the “amount needed for effective killing effect compared to evogliptin and saxagliptin” value in test [2] (human lung cancer cell lines, relative to evogliptin and saxagliptin) is recorded as ≤ 30%. Besides, on DPP4 (human recombinant), the “DPP4 inhibitory activity compared with positive controls vildagliptin and saxagliptin” value is “higher inhibitory activity than vildagliptin and saxacliptin”. Also, the DPP4 inhibitory activity result at DPP4 (human recombinant) was “excellent DPP4 inhibitory activity”.

For `N#C[C@@H]1C[C@@H]2C[C@@H]2N1C(=O)[C@@H](N)C12CC3CC(CC(O)(C3)C1)C2` [Saxagliptin, saxagliptin, reference compound], the IC50 was determined as 950 ± 10 µM in test [1] and 900 ± 10 µM in test [2] (0.01 to 20 mM, 2 days).
